# US20260078103A1, “ISOQUINOLONES AS PI3K INHIBITORS” (OnKure, Inc., priority 2022, published 2026)
# Where two headings read alike, the source gives them in different places.
# Legend:
# Format in all cases: cell-based
# [1] = system: phosphorylation of AKT (pAKT) in SKBR3 cells express WT PI3Ka; test: In vitro cell pAKT (Ser473) HTRF, SKBR3 cells; details: cellular pAKT
# How it was run: (§1)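 T47D cells (RPMI, 10% FBS, 0.2 units/mL insulin) or SKBR3 cells (McCoy's 5a, 10% FBS) were seeded onto 10-point compound dilutions and incubated 6 h at 37 °C. After lysis, pAKT was detected overnight by HTRF (Eu cryptate/d2). IC50 was fitted from % inhibition relative to 0.1% DMSO and 10 uM alpelisib controls.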
# [2] = system: T47D cells expressing mutant PI3Ka (H1047R); test: In vitro cell proliferation, T47D cells (CellTiter-Glo); details: inhibition of proliferation, read-out: Avg T-47D EC50
# How it was run: (§2)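 T47D cells in RPMI/10% FBS/insulin (0.2 units/mL) or SKBR3 in McCoys 5a/10% FBS, 1,500 cells/well, grown 72 h at 37 °C with 10-point compound dilutions. CellTiter-Glo luminescence; % inhibition normalised to 0.1% DMSO and 10 uM Alpelisib, EC50 from four-parameter curve fit.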
# [3] = system: SKBR3 cells express WT PI3Ka; test: In vitro cell proliferation, SKBR3 cells (CellTiter-Glo); details: inhibition of proliferation
# How it was run: as §2
# [4] = system: phosphorylation of AKT (pAKT) in T47D cells expressing mutant PI3Ka (H1047R); test: In vitro cell pAKT (Ser473) HTRF, T47D cells; details: cellular pAKT, T47D cells, mutant PI3Ka (H1047R), 6 hours, read-out: Avg T-47D IC50
# How it was run: as §1
IC50 ([1]; 6 hours),EC50 ([2]; 72 hours),EC50 ([3]; 72 hours),IC50 [4],"IC50 ([1]; Homo sapiens, SK-BR-3, 6 h)","EC50 ([2]; Homo sapiens, T47D, 72 h)","EC50 ([3]; Homo sapiens, SK-BR-3, 72 h)","IC50 ([4]; Homo sapiens, T47D, 6 h)",SMILES
> 15000 nM,1 to 500 nM,> 15000 nM,1 to 500 nM,,,,,"Cc1cc(C(C)Nc2ccccc2C(=O)O)c2c(F)c(C3=CCN(CC(F)(F)F)CC3)n(C)c(=O)c2c1 (single isomer, unassigned) [Example 359]"
> 15000 nM,2000 to 15000 nM,> 15000 nM,> 15000 nM,,,,,"Cc1cc(C(C)Nc2ccccc2C(=O)O)c2c(F)c(C3=CCN(CC(F)(F)F)CC3)n(C)c(=O)c2c1 (single isomer, unassigned) [Example 360]"
,,,,> 15000 nM,1 to 500 nM,> 15000 nM,1 to 500 nM,"Cc1cc([C@@H](C)Nc2ccccc2C(=O)O)c2cc([C@H]3C[C@@H]3C(C)(C)O)n(C)c(=O)c2c1 (single isomer, unassigned) [Example 373]"
> 15000 nM,1 to 500 nM,> 15000 nM,1 to 500 nM,,,,,"Cc1cc([C@@H](C)Nc2ccccc2C(=O)O)c2cc([C@H]3C[C@@H]3C(C)(C)O)n(C)c(=O)c2c1 (single isomer, unassigned) [Example 374]"
,,,,> 15000 nM,1 to 500 nM,> 15000 nM,1 to 500 nM,"Cc1cc([C@@H](C)Nc2ccccc2C(=O)O)c2cc(C3CC3(F)F)n(C)c(=O)c2c1 (single isomer, unassigned) [Example 384]"
> 15000 nM,1 to 500 nM,> 15000 nM,1 to 500 nM,,,,,"Cc1cc([C@@H](C)Nc2ccccc2C(=O)O)c2cc(C3CC3(F)F)n(C)c(=O)c2c1 (single isomer, unassigned) [Example 385]"
,2000 to 15000 nM,,2000 to 15000 nM,> 15000 nM,,> 15000 nM,,"Cc1cc([C@@H](C)Nc2cccc(F)c2C(=O)O)c2cc(C3CC3(F)F)n(C)c(=O)c2c1 (single isomer, unassigned) [Example 420]"
> 15000 nM,500 to 2000 nM,> 15000 nM,1 to 500 nM,,,,,"Cc1cc([C@@H](C)Nc2cccc(F)c2C(=O)O)c2cc(C3CC3(F)F)n(C)c(=O)c2c1 (single isomer, unassigned) [Example 421]"
,500 to 2000 nM,,,> 15000 nM,,> 15000 nM,1 to 500 nM,"C[C@@H](Nc1cccc(F)c1C(=O)O)c1cc(F)cc2c(=O)n(C)c(C3C[C@@H]3C3CC3)cc12 (single isomer, unassigned) [Example 425]"
> 15000 nM,1 to 500 nM,> 15000 nM,1 to 500 nM,,,,,"C[C@@H](Nc1cccc(F)c1C(=O)O)c1cc(F)cc2c(=O)n(C)c(C3C[C@@H]3C3CC3)cc12 (single isomer, unassigned) [Example 426]"
,,,,> 15000 nM,500 to 2000 nM,> 15000 nM,1 to 500 nM,"C[C@@H](Nc1cccc(F)c1C(=O)O)c1cc(F)cc2c(=O)n(C)c(C3C[C@@H]3C(F)(F)F)cc12 (single isomer, unassigned) [Example 427]"
> 15000 nM,500 to 2000 nM,> 15000 nM,1 to 500 nM,,,,,"C[C@@H](Nc1cccc(F)c1C(=O)O)c1cc(F)cc2c(=O)n(C)c(C3C[C@@H]3C(F)(F)F)cc12 (single isomer, unassigned) [Example 428]"
,,,,> 15000 nM,1 to 500 nM,> 15000 nM,1 to 500 nM,"C[C@@H](Nc1ccccc1C(=O)O)c1cc(F)cc2c(=O)n(C)c(C3C[C@@H]3C3CC3)cc12 (single isomer, unassigned) [Example 449]"
> 15000 nM,1 to 500 nM,> 15000 nM,1 to 500 nM,,,,,"C[C@@H](Nc1ccccc1C(=O)O)c1cc(F)cc2c(=O)n(C)c(C3C[C@@H]3C3CC3)cc12 (single isomer, unassigned) [Example 450]"
,,,,> 15000 nM,1 to 500 nM,> 15000 nM,1 to 500 nM,"C[C@@H](Nc1ccccc1C(=O)O)c1cc(F)cc2c(=O)n(C)c(C3C[C@@H]3C(F)(F)F)cc12 (single isomer, unassigned) [Example 451]"
> 15000 nM,1 to 500 nM,> 15000 nM,1 to 500 nM,,,,,"C[C@@H](Nc1ccccc1C(=O)O)c1cc(F)cc2c(=O)n(C)c(C3C[C@@H]3C(F)(F)F)cc12 (single isomer, unassigned) [Example 452]"
,,,,> 15000 nM,500 to 2000 nM,> 15000 nM,1 to 500 nM,"C[C@@H](Nc1cccc(F)c1C(=O)O)c1cc(F)cc2c(=O)n(C)c(C3C[C@@H]3C(F)F)cc12 (single isomer, unassigned) [Example 475]"
> 15000 nM,500 to 2000 nM,> 15000 nM,1 to 500 nM,,,,,"C[C@@H](Nc1cccc(F)c1C(=O)O)c1cc(F)cc2c(=O)n(C)c(C3C[C@@H]3C(F)F)cc12 (single isomer, unassigned) [Example 476]"
,2000 to 15000 nM,,2000 to 15000 nM,> 15000 nM,,> 15000 nM,,"C[C@@H](Nc1cccc(F)c1C(=O)O)c1cc(F)cc2c(=O)n(C)c(C3CC3(F)F)cc12 (single isomer, unassigned) [Example 479]"
> 15000 nM,500 to 2000 nM,> 15000 nM,1 to 500 nM,,,,,"C[C@@H](Nc1cccc(F)c1C(=O)O)c1cc(F)cc2c(=O)n(C)c(C3CC3(F)F)cc12 (single isomer, unassigned) [Example 480]"
,500 to 2000 nM,,500 to 2000 nM,> 15000 nM,,> 15000 nM,,"C[C@@H](Nc1ccccc1C(=O)O)c1cc(F)cc2c(=O)n(C)c(C3CC3(F)F)cc12 (single isomer, unassigned) [Example 481]"
> 15000 nM,1 to 500 nM,> 15000 nM,1 to 500 nM,,,,,"C[C@@H](Nc1ccccc1C(=O)O)c1cc(F)cc2c(=O)n(C)c(C3CC3(F)F)cc12 (single isomer, unassigned) [Example 482]"
> 15000 nM,2000 to 15000 nM,> 15000 nM,2000 to 15000 nM,,,,,"Cc1cc(C(C)Nc2ccccc2C(=O)O)c2cc(-c3ccc(N4CCOCC4)nc3)n(C)c(=O)c2c1 (single isomer, unassigned) [Example 486]"
2000 to 15000 nM,1 to 500 nM,2000 to 15000 nM,1 to 500 nM,,,,,"Cc1cc(C(C)Nc2ccccc2C(=O)O)c2cc(-c3ccc(N4CCOCC4)nc3)n(C)c(=O)c2c1 (single isomer, unassigned) [Example 487]"
,,,,> 15000 nM,1 to 500 nM,> 15000 nM,1 to 500 nM,"C[C@@H](Nc1ccccc1C(=O)O)c1cc(F)cc2c(=O)n(C)c(C3C[C@@H]3C(F)F)cc12 (single isomer, unassigned) [Example 488]"
> 15000 nM,1 to 500 nM,> 15000 nM,1 to 500 nM,,,,,"C[C@@H](Nc1ccccc1C(=O)O)c1cc(F)cc2c(=O)n(C)c(C3C[C@@H]3C(F)F)cc12 (single isomer, unassigned) [Example 489]"
,,,,> 15000 nM,1 to 500 nM,> 15000 nM,1 to 500 nM,"C[C@@H](Nc1ccccc1C(=O)O)c1cc(F)cc2c(=O)n(C)c(C3C[C@@H]3CF)cc12 (single isomer, unassigned) [Example 493]"
> 15000 nM,1 to 500 nM,> 15000 nM,1 to 500 nM,,,,,"C[C@@H](Nc1ccccc1C(=O)O)c1cc(F)cc2c(=O)n(C)c(C3C[C@@H]3CF)cc12 (single isomer, unassigned) [Example 494]"
